Data taken from publication PMC8288134, “Synthesis, potential antitumor activity, cell cycle analysis, and multitarget mechanisms of novel hydrazones incorporating a 4-methylsulfonylbenzene scaffold: a molecular docking study” (Journal of Enzyme Inhibition and Medicinal Chemistry, 2021).

Experiments:
CCRF-CEM = assay: NCI antitumor screen (SRB); assay type: cell-based; conditions: Homo sapiens, one dose 10 µM, read-out: Growth inhibition percentage (GI%)
HL-60(TB) = assay: cells; assay type: cell-based, human; conditions: Homo sapiens, HL-60, HL-60(TB); one dose 10 µM; read-out: Growth inhibition percentage (GI%)
MOLT-4 = assay: NCI antitumor screen (SRB); assay type: cell-based; conditions: Homo sapiens, one dose 10 µM, read-out: Growth inhibition percentage (GI%)
PRMI-8226 = assay: NCI antitumor screen (SRB); assay type: cell-based; conditions: Homo sapiens, one dose 10 µM, read-out: Growth inhibition percentage (GI%)
SR = assay: NCI antitumor screen (SRB); assay type: cell-based; conditions: Homo sapiens, one dose 10 µM, read-out: Growth inhibition percentage (GI%)
A549/ATCC = assay: NCI antitumor screen (SRB); assay type: cell-based; conditions: Homo sapiens, one dose 10 µM, read-out: Growth inhibition percentage (GI%)
EKVX = assay: NCI antitumor screen (SRB); assay type: cell-based; conditions: Homo sapiens, one dose 10 µM, read-out: Growth inhibition percentage (GI%)
NCI-H226 = assay: NCI antitumor screen (SRB); assay type: cell-based; conditions: Homo sapiens, one dose 10 µM, read-out: Growth inhibition percentage (GI%)
NCI-H23 = assay: NCI antitumor screen (SRB); assay type: cell-based; conditions: Homo sapiens, one dose 10 µM, read-out: Growth inhibition percentage (GI%)
NCI-H460 = assay: NCI antitumor screen (SRB); assay type: cell-based; conditions: Homo sapiens, one dose 10 µM, read-out: Growth inhibition percentage (GI%)
COLO 205 = assay: NCI antitumor screen (SRB); assay type: cell-based; conditions: Homo sapiens, one dose 10 µM, read-out: Growth inhibition percentage (GI%)
HCC-2998 = assay: NCI antitumor screen (SRB); assay type: cell-based; conditions: Homo sapiens, one dose 10 µM, read-out: Growth inhibition percentage (GI%)
HCT-116 = assay: NCI antitumor screen (SRB); assay type: cell-based; conditions: Homo sapiens, read-out: Growth inhibition percentage (GI%)
HCT-15 = assay: NCI antitumor screen (SRB); assay type: cell-based; conditions: Homo sapiens, one dose 10 µM, read-out: Growth inhibition percentage (GI%)
HT29 = assay: NCI antitumor screen (SRB); assay type: cell-based; conditions: Homo sapiens, HT-29, one dose 10 µM, read-out: Growth inhibition percentage (GI%)
KM12 = assay: NCI antitumor screen (SRB); assay type: cell-based; conditions: Homo sapiens, one dose 10 µM, read-out: Growth inhibition percentage (GI%)
SW-620 = assay: NCI antitumor screen (SRB); assay type: cell-based; conditions: Homo sapiens, one dose 10 µM, read-out: Growth inhibition percentage (GI%)
SF-268 = assay: NCI antitumor screen (SRB); assay type: cell-based; conditions: Homo sapiens, one dose 10 µM, read-out: Growth inhibition percentage (GI%)
SF-295 = assay: NCI antitumor screen (SRB); assay type: cell-based; conditions: Homo sapiens, one dose 10 µM, read-out: Growth inhibition percentage (GI%)
SF-539 = assay: NCI antitumor screen (SRB); assay type: cell-based; conditions: Homo sapiens, one dose 10 µM, read-out: Growth inhibition percentage (GI%)
SNB-19 = assay: NCI antitumor screen (SRB); assay type: cell-based; conditions: Homo sapiens, one dose 10 µM, read-out: Growth inhibition percentage (GI%)
SNB-75 = assay: NCI antitumor screen (SRB); assay type: cell-based; conditions: Homo sapiens, one dose 10 µM, read-out: Growth inhibition percentage (GI%)
U251 = assay: NCI antitumor screen (SRB); assay type: cell-based; conditions: Homo sapiens, U-251, one dose 10 µM, read-out: Growth inhibition percentage (GI%)
LOX IMVI = assay: NCI antitumor screen (SRB); assay type: cell-based; conditions: Homo sapiens, one dose 10 µM, read-out: Growth inhibition percentage (GI%)
MALME-3M = assay: NCI antitumor screen (SRB); assay type: cell-based; conditions: Homo sapiens, one dose 10 µM, read-out: Growth inhibition percentage (GI%)
M14 = assay: NCI antitumor screen (SRB); assay type: cell-based; conditions: Homo sapiens, one dose 10 µM, read-out: Growth inhibition percentage (GI%)
MDA-MB-435 = assay: NCI antitumor screen (SRB); assay type: cell-based; conditions: Homo sapiens, one dose 10 µM, read-out: Growth inhibition percentage (GI%)
SK-MEL-28 = assay: NCI antitumor screen (SRB); assay type: cell-based, human; conditions: Homo sapiens, SK-MEL-28, SK-MEL-28; one dose 10 µM; read-out: Growth inhibition percentage (GI%)
UACC-257 = assay: NCI antitumor screen (SRB); assay type: cell-based, human; conditions: Homo sapiens, UACC-257, UACC-257; one dose 10 µM; read-out: Growth inhibition percentage (GI%)
UACC-62 = assay: NCI antitumor screen (SRB); assay type: cell-based; conditions: Homo sapiens, one dose 10 µM, read-out: Growth inhibition percentage (GI%)
IGROV1 = assay: NCI antitumor screen (SRB); assay type: cell-based; conditions: Homo sapiens, IGROV-1, one dose 10 µM, read-out: Growth inhibition percentage (GI%)
OVCAR-3 = assay: NCI antitumor screen (SRB); assay type: cell-based; conditions: Homo sapiens, one dose 10 µM, read-out: Growth inhibition percentage (GI%)
OVCAR-4 = assay: NCI antitumor screen (SRB); assay type: cell-based; conditions: Homo sapiens, one dose 10 µM, read-out: Growth inhibition percentage (GI%)
OVCAR-5 = assay: NCI antitumor screen (SRB); assay type: cell-based; conditions: Homo sapiens, one dose 10 µM, read-out: Growth inhibition percentage (GI%)
OVCAR-8 = assay: NCI antitumor screen (SRB); assay type: cell-based; conditions: Homo sapiens, one dose 10 µM, read-out: Growth inhibition percentage (GI%)
NCI/ADR-RES = assay: NCI antitumor screen (SRB); assay type: cell-based; conditions: Homo sapiens, one dose 10 µM, read-out: Growth inhibition percentage (GI%)
SK-OV-3 = assay: NCI antitumor screen (SRB); assay type: cell-based; conditions: Homo sapiens, one dose 10 µM, read-out: Growth inhibition percentage (GI%)
786-0 = assay: NCI antitumor screen (SRB); assay type: cell-based; conditions: Homo sapiens, one dose 10 µM, read-out: Growth inhibition percentage (GI%)
A498 = assay: NCI antitumor screen (SRB); assay type: cell-based; conditions: Homo sapiens, one dose 10 µM, read-out: Growth inhibition percentage (GI%)
ACHN = assay: NCI antitumor screen (SRB); assay type: cell-based; conditions: Homo sapiens, one dose 10 µM, read-out: Growth inhibition percentage (GI%)
CAKI-1 = assay: NCI antitumor screen (SRB); assay type: cell-based; conditions: Homo sapiens, one dose 10 µM, read-out: Growth inhibition percentage (GI%)
RXF 393 = assay: NCI antitumor screen (SRB); assay type: cell-based; conditions: Homo sapiens, one dose 10 µM, read-out: Growth inhibition percentage (GI%)
SN12C = assay: NCI antitumor screen (SRB); assay type: cell-based; conditions: Homo sapiens, one dose 10 µM, read-out: Growth inhibition percentage (GI%)
TK-10 = assay: NCI antitumor screen (SRB); assay type: cell-based; conditions: Homo sapiens, one dose 10 µM, read-out: Growth inhibition percentage (GI%)
UO-31 = assay: NCI antitumor screen (SRB); assay type: cell-based, human; conditions: Homo sapiens, UO-31, UO-31; one dose 10 µM; read-out: Growth inhibition percentage (GI%)
PC-3 = assay: NCI antitumor screen (SRB); assay type: cell-based; conditions: Homo sapiens, one dose 10 µM, read-out: Growth inhibition percentage (GI%)
DU-145 = assay: NCI antitumor screen (SRB); assay type: cell-based; conditions: Homo sapiens, one dose 10 µM, read-out: Growth inhibition percentage (GI%)
MCF7 = assay: NCI antitumor screen (SRB); assay type: cell-based; conditions: Homo sapiens, one dose 10 µM, read-out: Growth inhibition percentage (GI%)
MDA-MB-231/ATCC = assay: NCI antitumor screen (SRB); assay type: cell-based; conditions: Homo sapiens, one dose 10 µM, read-out: Growth inhibition percentage (GI%)
HS 578 T = assay: NCI antitumor screen (SRB); assay type: cell-based; conditions: Homo sapiens, one dose 10 µM, read-out: Growth inhibition percentage (GI%)
BT-549 = assay: NCI antitumor screen (SRB); assay type: cell-based; conditions: Homo sapiens, one dose 10 µM, read-out: Growth inhibition percentage (GI%)
T-47D = assay: NCI antitumor screen (SRB); assay type: cell-based; conditions: Homo sapiens, T47D, one dose 10 µM, read-out: Growth inhibition percentage (GI%)
MDA-MB-468 = assay: NCI antitumor screen (SRB); assay type: cell-based; conditions: Homo sapiens, one dose 10 µM, read-out: Growth inhibition percentage (GI%)
[1] = tested on: ovarian cancer tumour cell lines; assay: NCI antitumor screen, subpanel; assay type: cell-based; conditions: 10 µM
[2] = tested on: full panel of 59 cancer cell lines; assay: NCI antitumor screen, full panel; conditions: one dose 10 µM, mean over cell lines

## Cc1ccc(NC(=O)c2ccc(CN3CCN(C)CC3)cc2)cc1Nc1nccc(-c2cccnc2)n1 [Imatinib, imatinib, reference compound]
CCRF-CEM
  inhibition at 10 µM: < 10%
HL-60(TB)
  inhibition at 10 µM: < 10%
MOLT-4
  inhibition at 10 µM: 18%
PRMI-8226
  inhibition at 10 µM: 12.6%
SR
  inhibition at 10 µM: 14.6%
A549/ATCC
  inhibition at 10 µM: < 10%
EKVX
  inhibition at 10 µM: 15.7%
NCI-H226
  inhibition at 10 µM: 10.6%
NCI-H23
  inhibition at 10 µM: 17.1%
NCI-H460
  inhibition at 10 µM: < 10%
COLO 205
  inhibition at 10 µM: < 10%
HCC-2998
  inhibition at 10 µM: < 10%
HCT-116
  inhibition at 10 µM: 18.6%
HCT-15
  inhibition at 10 µM: 11.5%
HT29
  inhibition at 10 µM: 47.1%
KM12
  inhibition at 10 µM: < 10%
SW-620
  inhibition at 10 µM: < 10%
SF-268
  inhibition at 10 µM: < 10%
SF-295
  inhibition at 10 µM: 15.1%
SF-539
  inhibition at 10 µM: 24.5%
SNB-19
  inhibition at 10 µM: < 10%
SNB-75
  inhibition at 10 µM: < 10%
U251
  inhibition at 10 µM: 10.6%
LOX IMVI
  inhibition at 10 µM: 11.6%
MALME-3M
  inhibition at 10 µM: < 10%
M14
  inhibition at 10 µM: < 10%
MDA-MB-435
  inhibition at 10 µM: < 10%
SK-MEL-28
  inhibition at 10 µM: < 10%
UACC-257
  inhibition at 10 µM: < 10%
UACC-62
  inhibition at 10 µM: < 10%
IGROV1
  inhibition at 10 µM: < 10%
OVCAR-3
  inhibition at 10 µM: < 10%
OVCAR-4
  inhibition at 10 µM: < 10%
OVCAR-5
  inhibition at 10 µM: < 10%
OVCAR-8
  inhibition at 10 µM: < 10%
NCI/ADR-RES
  inhibition at 10 µM: < 10%
SK-OV-3
  inhibition at 10 µM: < 10%
786-0
  inhibition at 10 µM: < 10%
A498
  inhibition at 10 µM: 13.7%
ACHN
  inhibition at 10 µM: < 10%
CAKI-1
  inhibition at 10 µM: < 10%
RXF 393
  inhibition at 10 µM: < 10%
SN12C
  inhibition at 10 µM: < 10%
TK-10
  inhibition at 10 µM: < 10%
UO-31
  inhibition at 10 µM: < 10%
PC-3
  inhibition at 10 µM: 10.6%
DU-145
  inhibition at 10 µM: 14.4%
MCF7
  inhibition at 10 µM: < 10%
MDA-MB-231/ATCC
  inhibition at 10 µM: 11.2%
HS 578 T
  inhibition at 10 µM: < 10%
BT-549
  inhibition at 10 µM: < 10%
T-47D
  inhibition at 10 µM: 18.6%
MDA-MB-468
  inhibition at 10 µM: 29.1%
[1]
  GI (range over subpanel cell lines): < 10.0%
[2]
  percentage mean growth (MG): 92.62%
